Several values for one entry are separate records, joined by “and”; a condition that tells them apart may be missing. Equal entries are not always repeated. After the bases stand the sugars from the 5' end (letter, count) and the backbone: PS all phosphorothioate, else s phosphorothioate and o phosphodiester by linkage. Methylation of C is not given here. e = 2'-O-(2-methoxyethyl) (MOE); k = constrained ethyl (cEt); d = 2'-deoxy (DNA)

The target in this data set is APOL1. Conditions: ASO.

As for “TTTTGTAAGTGCAACC (sugars kkkddddkekeddddd, PS)”, the target mRNA inhibition (A431, 0.0156 µM) is 21%; the target mRNA inhibition (A431, 0.0625 µM) came out at 67%; the target mRNA inhibition (A431, 0.25 µM) turned out to be 89%; the target mRNA inhibition (A431, 1 µM) amounted to 97%; the target mRNA inhibition (A431, 2 µM) came out at 98%.
As for “CGTCAATATATTCTTT (sugars kkddddkekekkdddd, PS)”, the target mRNA inhibition (A431, 0.0156 µM) was determined as 3%; the target mRNA inhibition (A431, 0.0625 µM) stood at 36%; the target mRNA inhibition (A431, 0.25 µM) is 70%; the target mRNA inhibition (A431, 1 µM) worked out at 88%; the target mRNA inhibition (A431, 2 µM) is 95%.
The sequence “CTTTATACCAGTGTCT (sugars kkddddkekekkdddd, PS)” gave a target mRNA inhibition (A431, 2 µM) of 87%.
For the sequence “GTATTTCTTGATGTGG (sugars kkddddekekeddddd, PS)”, the target mRNA inhibition (A431, 0.04 µM) was 58%; the target mRNA inhibition (A431, 1 µM) came out at 96%; the target mRNA inhibition (A431, 2 µM) was 96%.
On to “TTTGTAAGTGCAACCA (sugars k2 d4 e3 k2 d5, PS)”, for which the target mRNA inhibition by setting is: (A431, 0.0156 µM) 23%; (A431, 0.0625 µM) 60%; (A431, 0.25 µM) 87%; (A431, 1 µM) 98%; (A431, 2 µM) 99%.
Sequence “ATTCTCATGGTACAGG (sugars kkkddddkdkdkdddd, PS)” showed a target mRNA inhibition (A431, 2 µM) of 81%.
Still for that read-out and setting: under “AAGTATTGCCAGCTAA (sugars kddddkekekeddddd, PS)” stands 25%.
With AGTTTCATATTCACCC (sugars k4 d9 k3, PS), the target mRNA inhibition is, setting by setting: (A431, 0.0625 µM) 58%; (A431, 0.25 µM) 83%; (A431, 1 µM) 94%.
For ATTCTGTGTGCTCACT (sugars k4 d9 k3, PS), in that order: 65%, 80% and 92%.
Take “TGGGAATTATGGAATT (sugars k2 d4 e3 k2 d5, PS)”: the target mRNA inhibition (A431, 2 µM) stood at 63%.
For the setting “A431, 2 µM”, “AATTCTATTAGAGGGC (sugars kkkddddkekeddddd, PS)” displayed a target mRNA inhibition of 82%.
“CATTCAGAATTTCCAC (sugars k3 d5 k3 d5, PS)” had a target mRNA inhibition (A431, 2 µM) of 94%.
Regarding GAAGCTTTAAACTCAG (sugars k4 d9 k3, PS), the target mRNA inhibition by setting is: (A431, 0.0625 µM) 41%; (A431, 0.25 µM) 65%; (A431, 1 µM) 82%.
Sequence “ATTCTCATGGTACAGG (sugars kdddddkekekddddd, PS)” came in with a target mRNA inhibition (A431, 2 µM) of 83%.
For the sequence “CTTTAAACTCAGGTGA (sugars k2 d4 e3 k2 d5, PS)”, the target mRNA inhibition came to 19% (A431, 0.0156 µM); 40% (A431, 0.0625 µM); 61% (A431, 0.25 µM); 85% (A431, 1 µM); 92% (A431, 2 µM).
In the case of “CACATCATTGGGTTAT (sugars kkddddkdkdkddddd, PS)”, the target mRNA inhibition (A431, 2 µM) is 79%.
Take GATGGGTACTTCTGTT (sugars k4 d9 k3, PS): the target mRNA inhibition amounted to 63% (A431, 0.0625 µM); 82% (A431, 0.25 µM); 90% (A431, 1 µM).
As for “AGTTTTGTAAGTGCAA (sugars kkddddkekekkdddd, PS)”, the target mRNA inhibition (A431, 2 µM) amounted to 84%.
On to “CGTCAATATATTCTTT (sugars k3 d5 k3 d5, PS)”, for which the target mRNA inhibition runs as follows: (A431, 0.0156 µM) 38%; (A431, 0.0625 µM) 56% and 62%; (A431, 0.25 µM) 84% and 87%; (A431, 1 µM) 93%; (A431, 2 µM) 94%.
The sequence “CATTCAGAATTTCCAC (sugars kkddddkdkdkddddd, PS)” returned a target mRNA inhibition (A431, 2 µM) of 84%.
Regarding CCCCTGCCAGGCATAT (sugars k4 d9 k3, PS), the target mRNA inhibition by setting is: (A431, 0.0625 µM) 22%; (A431, 0.25 µM) 42%; (A431, 1 µM) 44%.
Consider CGATTGTCTTGTTTTT (sugars k4 d9 k3, PS), for which the target mRNA inhibition is 70% and 79% (A431, 0.0625 µM); 90% and 88% (A431, 0.25 µM); 97% and 94% (A431, 1 µM).
In the case of “AAGTATTGCCAGCTAA (sugars kkkddddkdkdkdddd, PS)”, the target mRNA inhibition (A431, 2 µM) is 54%.
On the same count and under the same terms, under “AAGTATTGCCAGCTAA (sugars kkkddddkekeddddd, PS)” stands 63%.
For the sequence “GTTATATTTGATCCTC (sugars kkddddkdkdkddddd, PS)”, the target mRNA inhibition (A431, 0.0156 µM) was 9%; the target mRNA inhibition (A431, 0.0625 µM) stood at 38%; the target mRNA inhibition (A431, 0.25 µM) was determined as 68%; the target mRNA inhibition (A431, 1 µM) turned out to be 89%; the target mRNA inhibition (A431, 2 µM) was found to be 93%.
Take “GTAAGTATTGCCAGCT (sugars kkddddekekeddddd, PS)”: under “A431, 2 µM”, the target mRNA inhibition is 69%.
Take TATGGAATTGCAGATA (sugars k4 d9 k3, PS): the target mRNA inhibition turned out to be 8% (A431, 0.0625 µM); 46% (A431, 0.25 µM); 74% (A431, 1 µM).
Where the note is “A431, 2 µM”, “CGTCAATATATTCTTT (sugars k2 d4 e3 k2 d5, PS)” showed a target mRNA inhibition of 81%.
The sequence “GTTTTGTAAGTGCAAC (sugars kkddddkekekddddd, PS)” showed a target mRNA inhibition (A431, 2 µM) of 88%.
Where the note is “A431, 2 µM”, “CTTTATACCAGTGTCT (sugars kkkddddkekekdddd, PS)” came in with a target mRNA inhibition of 76%.
With AGCAGCCACGAATCCG (sugars k4 d9 k3, PS), the target mRNA inhibition reads like this: (A431, 0.0625 µM) 40%; (A431, 0.25 µM) 66%; (A431, 1 µM) 63%.
CTTGTTTTATGGAGTC (sugars k4 d9 k3, PS): the target mRNA inhibition by setting is: (A431, 0.0625 µM) 85% and 91%; (A431, 0.25 µM) 97%; (A431, 1 µM) 99%.
For the setting “A431, 2 µM”, “GAACGCAATGCTGACT (sugars kkddddkekekddddd, PS)” returned a target mRNA inhibition of 78%.
The sequence “TATTCTCATGGTACAG (sugars k2 d4 e3 k2 d5, PS)” returned a target mRNA inhibition (A431, 2 µM) of 71%.
In the case of “GAAGCTTTAAACTCAG (sugars kkddddekekeddddd, PS)”, the target mRNA inhibition (A431, 2 µM) worked out at 62%.
The same measure, in the same setting: with “GTTCAAAAGCAGCATT (sugars kkddddekekeddddd, PS)” the figure was 82%; with “GAAGATTGGCTCTGGC (sugars kkdddddkekeddddd, PS)”, 70%.
As to “GTTCTAACTCTTGGGC (sugars kkddddkekekddddd, PS)”, the target mRNA inhibition (A431, 2 µM) came to 61%.
For the sequence “TGAGTATTGTTTTTGT (sugars kkkddddkekeddddd, PS)”, the target mRNA inhibition runs as follows: (A431, 0.0156 µM) 16%; (A431, 0.0625 µM) 47%; (A431, 0.25 µM) 74%; (A431, 1 µM) 90%; (A431, 2 µM) 92%.
The sequence “ACGCAATGCTGACTTG (sugars k3 d5 k3 d5, PS)” displayed a target mRNA inhibition (A431, 0.0625 µM) of 54%; a target mRNA inhibition (A431, 0.25 µM) of 83%; a target mRNA inhibition (A431, 1 µM) of 94%; a target mRNA inhibition (A431, 2 µM) of 94%.
In turn, “GGTTATGAAATTATTG (sugars k3 d4 k3 e1 d5, PS)” registered a target mRNA inhibition (A431, 2 µM) of 91%.
On the same count and under the same terms, under “GTATTGTTTTTGTGGG (sugars kdddddkekekddddd, PS)” stands 77%.
Same read-out and setting: with “TTCTATTAGAGGGCTA (sugars kkddddekekeddddd, PS)” the figure was 85%; with “AAGTATTGCCAGCTAA (sugars kkddddkdkdkddddd, PS)”, 70%.
Same read-out and setting: under “CTTTAAACTCAGGTGA (sugars kkddddkekekddddd, PS)” stands 82%; under “CAGTTTTGTAAGTGCA (sugars k3 d5 k3 d5, PS)”, 97%.

These data come from the OligoGym collection.
